Measurements published in US10988477B2 (Merck Patent GmbH, priority 2018, dated 2021).
Like-named read-outs stand apart in the source and are kept apart here.

Legend:
[1] = molecular target: intracellular GCN2 (phosphorylation of the GCN2 substrate eIF2α) (Homo sapiens, UniProt Q9P2K8); experiment: GCN2 cellular inhibition assay (AlphaScreen SureFire P-eIF2α Ser51, borrelidin-treated U2OS cells); assay type: cell-based
Summary of the method: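 Borrelidin at 10 μM is added to U2OS cells immediately after compound (4-fold dilution series, 40 μM top final) for 1 h at 37 °C. Phosphorylated eIF2α Ser51 in lysates is quantified by AlphaScreen and expressed as percent inhibition against borrelidin-stimulated controls.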

GCN2 kinase = GCN2 kinase (Homo sapiens, UniProt Q9P2K8); experiment: GCN2 enzyme inhibition assay (Transcreener ADP2 fluorescence polarization); assay type: biochemical; details: 280 μM ATP
Summary of the method: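 Inhibition of 4 nM GCN2 was measured with compound up to 8 μM final, ATP 280 μM and (RS)7 peptide 200 μM over a 1 h, 25 °C reaction. ADP FP readout; IC50 and Ki(app) calculated from percent inhibition.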

[2] = compounds of Formula II, biomarker assay, phosphorylated eIF2α Ser51 in borrelidin-treated U2OS cells
[3] = compounds of Formula II, 4 nM GCN2 kinase
[4] = compounds of Formula V, U2OS cells, 10 μM borrelidin, 1 h, read-out: GCN2 Biomarker (IC50)
[5] = compounds of Formula V, 4 nM GCN2 kinase
[6] = compounds of Formula IV, biomarker assay, phosphorylated eIF2α Ser51 in borrelidin-treated U2OS cells
[7] = Enzyme activity for compounds of Formula IV, Ki(app), 25° C.

Chain of GCN2 kinase (Q9P2K8 whole entry): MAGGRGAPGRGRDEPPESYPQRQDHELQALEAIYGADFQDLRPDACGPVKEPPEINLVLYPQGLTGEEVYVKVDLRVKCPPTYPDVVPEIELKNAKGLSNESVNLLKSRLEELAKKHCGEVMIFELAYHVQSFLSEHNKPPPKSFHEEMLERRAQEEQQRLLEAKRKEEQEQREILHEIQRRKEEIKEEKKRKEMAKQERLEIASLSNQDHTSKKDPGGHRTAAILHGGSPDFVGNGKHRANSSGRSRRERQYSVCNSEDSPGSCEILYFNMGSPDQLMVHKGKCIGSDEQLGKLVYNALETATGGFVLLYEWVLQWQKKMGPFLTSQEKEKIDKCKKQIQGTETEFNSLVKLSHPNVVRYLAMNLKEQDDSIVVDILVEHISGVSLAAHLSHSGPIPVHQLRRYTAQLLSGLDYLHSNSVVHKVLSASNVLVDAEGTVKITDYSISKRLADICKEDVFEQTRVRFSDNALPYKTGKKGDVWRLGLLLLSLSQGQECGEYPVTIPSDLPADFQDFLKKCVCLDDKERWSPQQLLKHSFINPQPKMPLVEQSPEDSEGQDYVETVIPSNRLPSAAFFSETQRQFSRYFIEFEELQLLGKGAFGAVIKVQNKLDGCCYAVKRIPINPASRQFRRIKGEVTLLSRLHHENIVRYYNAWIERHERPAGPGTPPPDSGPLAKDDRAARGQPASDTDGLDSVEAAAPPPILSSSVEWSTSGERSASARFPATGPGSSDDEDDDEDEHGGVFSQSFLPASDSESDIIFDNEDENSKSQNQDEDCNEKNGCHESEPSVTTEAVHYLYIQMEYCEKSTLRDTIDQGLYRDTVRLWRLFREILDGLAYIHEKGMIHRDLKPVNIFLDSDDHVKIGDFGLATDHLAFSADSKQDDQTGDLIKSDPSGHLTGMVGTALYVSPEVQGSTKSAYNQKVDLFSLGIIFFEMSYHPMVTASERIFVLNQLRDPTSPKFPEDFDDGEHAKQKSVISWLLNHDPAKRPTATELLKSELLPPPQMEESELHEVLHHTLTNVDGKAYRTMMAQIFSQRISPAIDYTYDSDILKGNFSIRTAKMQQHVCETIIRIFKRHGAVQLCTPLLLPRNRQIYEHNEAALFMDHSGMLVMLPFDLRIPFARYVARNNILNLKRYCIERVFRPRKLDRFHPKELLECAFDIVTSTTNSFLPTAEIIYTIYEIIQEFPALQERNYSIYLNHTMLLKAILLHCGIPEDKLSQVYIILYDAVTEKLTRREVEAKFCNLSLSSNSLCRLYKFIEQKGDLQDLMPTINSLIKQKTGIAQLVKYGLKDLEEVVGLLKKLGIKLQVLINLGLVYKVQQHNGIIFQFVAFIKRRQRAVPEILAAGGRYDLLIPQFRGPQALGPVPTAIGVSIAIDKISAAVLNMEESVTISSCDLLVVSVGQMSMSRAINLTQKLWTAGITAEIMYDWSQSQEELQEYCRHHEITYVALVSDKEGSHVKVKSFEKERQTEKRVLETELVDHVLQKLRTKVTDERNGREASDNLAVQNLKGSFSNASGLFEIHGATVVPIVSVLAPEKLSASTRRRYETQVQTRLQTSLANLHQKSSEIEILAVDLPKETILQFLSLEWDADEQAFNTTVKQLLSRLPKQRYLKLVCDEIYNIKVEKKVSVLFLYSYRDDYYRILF
Chain of intracellular GCN2 (phosphorylation of the GCN2 substrate eIF2α) (Q9P2K8 whole entry): as above

Row | SMILES | IC50 [1, 2] [nM] | Ki (GCN2 kinase; [3]) [nM] | IC50 [1, 6] [nM] | Ki (GCN2 kinase; [7]) [nM] | other results
1 | OCC1CN(c2cc(-c3cnc4ccc(C(F)F)nn34)ncn2)CCO1 (stereo not drawn) [II-521, (4-(6-(6-(Difluoromethyl)imidazo[1,2-b]pyridazin-3-yl)pyrimidin-4-yl)morpholin-2-yl)methanol] | 500 to 5000 | 10 to 1000 |  |  | 
2 | CS(=O)(=O)NCC1CCCN(c2cc(-c3cnc4ccc(C#N)nn34)ncn2)C1 (stereo not drawn) [II-692, N-[[1-[6-(6-Cyanoimidazo[1,2-b]pyridazin-3-yl)pyrimidin-4-yl]-3-piperidyl]methyl]methanesulfonamide] | 500 to 5000 | 10 to 1000 |  |  | 
3 | CS(=O)(=O)N[C@@H]1CCCN(c2cc(-c3cnc4ccc(C(F)F)nn34)ncn2)C1 (single isomer, unassigned) [II-405] | 500 to 5000 | 10 to 1000 |  |  | 
4 | CS(=N)(=O)CC1CCCN(c2ccnc(-c3cnc4sc(C(F)(F)F)cn34)n2)C1 (racemic) [Compound V-19, Imino(methyl)((1-(2-(2-(trifluoromethyl)imidazo[2,1-b]thiazol-5-yl)pyrimidin-4-yl)piperidin-3-yl)methyl)-λ^6-sulfanone] |  |  |  |  | IC50 [1, 4]: > 5000 nM; Ki (GCN2 kinase; [5]): 100 to 1000 nM
5 | CCN1CCN(c2ccnc(-c3cnc4cnc(Br)cn34)n2)[C@@H](C)[C@H]1c1cn[nH]c1 (single isomer, unassigned) [IV-402, Cis-6-Bromo-3-(4-(4-ethyl-2-methyl-3-(1H-pyrazol-4-yl)piperazin-1-yl)pyrimidin-2-yl)imidazo[1,2-a]pyrazine] |  |  | < 500 | < 10 | 
6 | COc1cc(-c2cnc3ccc(C(F)F)nn23)cc(N2CCC[C@H](CNS(C)(=O)=O)C2)n1 [II-120, (S)—N-((1-(4-(6-(Difluoromethyl)imidazo[1,2-b]pyridazin-3-yl)-6-methoxypyridin-2-yl)piperidin-3-yl)methyl)methanesulfonamide] | > 5000 | < 10 |  |  | 
7 | CC(C)c1nc(C2CCCN(c3ccnc(-c4cnc5cnc(Br)cn45)n3)C2)c[nH]1 (stereo not drawn) [IV-384, 6-Bromo-3-(4-(3-(2-isopropyl-1H-imidazol-4-yl)piperidin-1-yl)pyrimidin-2-yl)imidazo[1,2-a]pyrazine] |  |  | 500 to 5000 | 10 to 100 | 
8 | NC(=O)C1CN(c2ccnc(-c3cnc4cnc(C(F)(F)F)cn34)n2)CC(F)(F)C1 (stereo not drawn) [IV-582, 5,5-Difluoro-1-(2-(6-(trifluoromethyl)imidazo[1,2-a]pyrazin-3-yl)pyrimidin-4-yl)piperidine-3-carboxamide] |  |  | 500 to 5000 | 10 to 100 | 
9 | CC(=O)N1CCN(c2cccc(-c3cnc4ccc(C(F)F)nn34)n2)CC1 [II-731, 1-(4-(6-(6-(difluoromethyl)imidazo[1,2-b]pyridazin-3-yl)pyridin-2-yl)piperazin-1-yl)ethan-1-one] | > 5000 | > 1000 |  |  | 
10 | CS(=O)(=O)N1CCC12CCCN(c1cc(-c3cnc4ccc(C(F)F)nn34)ncn1)C2 (stereo not drawn) [II-70, 6-(Difluoromethyl)-3-(6-(1-(methylsulfonyl)-1,6-diazaspiro[3.5]nonan-6-yl)pyrimidin-4-yl)imidazo[1,2-b]pyridazine] | > 5000 | 10 to 1000 |  |  | 
11 | O=C1NCC2CN(c3cc(-c4cnc5ccc(C(F)F)nn45)ccn3)CCN12 (stereo not drawn) [II-173, 7-(4-(6-(Difluoromethyl)imidazo[1,2-b]pyridazin-3-yl)pyridin-2-yl)hexahydroimidazo[1,5-a]pyrazin-3(2H)-one] | 500 to 5000 | 10 to 1000 |  |  | 
12 | Clc1ccc2ncc(-c3ccnc(-c4ccccc4)c3)n2n1 [II-27, 6-Chloro-3-(2-phenylpyridin-4-yl)imidazo[1,2-b]pyridazine] | > 5000 | 10 to 1000 |  |  | 
13 | C[C@@H]1[C@H](CNS(C)(=O)=O)N(C2CC2)CCN1c1cc(-c2cnc3ccc(C(F)F)nn23)ncn1 [II-753, N-(((2S,3R)-1-cyclopropyl-4-(6-(6-(difluoromethyl)imidazo[1,2-b]pyridazin-3-yl)pyrimidin-4-yl)-3-methylpiperazin-2-yl)methyl)methanesulfonamide] | 500 to 5000 |  |  |  | IC50 (GCN2 kinase; [3]): 10 to 1000 nM
14 | FC(F)(F)c1cn2c(-c3nccc(N4CCCC(c5c[nH]c(Cl)n5)C4)n3)cnc2cn1 (stereo not drawn) [IV-409, 3-(4-(3-(2-Chloro-1H-imidazol-4-yl)piperidin-1-yl)pyrimidin-2-yl)-6-(trifluoromethyl)imidazo[1,2-a]pyrazine] |  |  | 500 to 5000 | < 10 | 
15 | CCN1CCN(c2ccnc(-c3cnc4cnc(Br)cn34)n2)[C@@H](C)[C@H]1c1cn[nH]c1 (single isomer, unassigned) [IV-401, Cis-6-Bromo-3-(4-(4-ethyl-2-methyl-3-(1H-pyrazol-4-yl)piperazin-1-yl)pyrimidin-2-yl)imidazo[1,2-a]pyrazine] |  |  | 500 to 5000 | 10 to 100 | 
16 | Cc1n[nH]cc1C1CCN(c2ccnc(-c3cnc4cnc(C(F)(F)F)cn34)n2)C1 (stereo not drawn) [IV-575, 3-(4-(3-(3-Methyl-1H-pyrazol-4-yl)pyrrolidin-1-yl)pyrimidin-2-yl)-6-(trifluoromethyl)imidazo[1,2-a]pyrazine] |  |  | 500 to 5000 | 10 to 100 | 
17 | O=S(=O)(NCC1CCCN(c2cc(-c3cnc4ccc(C(F)F)nn34)ncn2)C1)C1COC1 (stereo not drawn) [II-289, N-((1-(6-(6-(Difluoromethyl)imidazo[1,2-b]pyridazin-3-yl)pyrimidin-4-yl)piperidin-3-yl)methyl)oxetane-3-sulfonamide] | 500 to 5000 | 10 to 1000 |  |  | 
18 | NS(=O)(=O)N1CC2CCCN(c3cc(-c4cnc5ccc(C(F)F)nn45)ncn3)C2C1 (stereo not drawn) [II-335, 1-(6-(6-(Difluoromethyl)imidazo[1,2-b]pyridazin-3-yl)pyrimidin-4-yl)octahydro-6H-pyrrolo[3,4-b]pyridine-6-sulfonamide] | > 5000 | 10 to 1000 |  |  | 
19 | CC(=O)N1CCN(c2cccc(-c3cnc4cnccn34)n2)CC1 [IV-2, 1-(4-(6-(Imidazo[1,2-a]pyrazin-3-yl)pyridin-2-yl)piperazin-1-yl)ethan-1-one] |  |  | > 5000 | 100 to 1000 | 
20 | FC(F)c1ccc2ncc(-c3cc(N4CCOCC45CC5)ncn3)n2n1 [II-400, 4-(6-(6-(Difluoromethyl)imidazo[1,2-b]pyridazin-3-yl)pyrimidin-4-yl)-7-oxa-4-azaspiro[2.5]octane] | > 5000 | 10 to 1000 |  |  | 
21 | CS(=O)(=O)NCC1COCCN(c2cc(-c3cnc4ccc(C(F)F)nn34)ccn2)C1 (stereo not drawn) [II-99, N-((4-(4-(6-(Difluoromethyl)imidazo[1,2-b]pyridazin-3-yl)pyridin-2-yl)-1,4-oxazepan-6-yl)methyl)methanesulfonamide] | 500 to 5000 | < 10 |  |  | 
22 | CS(C)(=O)=N[C@H]1CCCN(c2cc(-c3cnc4ccc(C(F)F)nn34)ncn2)C1 (single isomer, unassigned) [II-502] | < 500 | 10 to 1000 |  |  | 
23 | Cc1[nH]ncc1C1CN(c2ccnc(-c3cnc4cnc(C(F)F)cn34)n2)CC(C)N1 (single isomer, unassigned) [IV-463, 6-(Difluoromethyl)-3-(4-(3-methyl-5-(5-methyl-1H-pyrazol-4-yl)piperazin-1-yl)pyrimidin-2-yl)imidazo[1,2-a]pyrazine] |  |  | > 5000 | 100 to 1000 | 
24 | CS(=O)(=O)N1CCOC2(CN(c3cc(-c4cnc5ccc(C(F)F)nn45)ncn3)C2)C1 [II-280, 2-(6-(6-(Difluoromethyl)imidazo[1,2-b]pyridazin-3-yl)pyrimidin-4-yl)-8-(methylsulfonyl)-5-oxa-2,8-diazaspiro[3.5]nonane] | > 5000 | 10 to 1000 |  |  | 
25 | CS(=O)(=O)NCC1CCCN(c2ccnc(-c3cnc4cnc(C(F)F)cn34)n2)C1 (stereo not drawn) [IV-152, N-((1-(2-(6-(Difluoromethyl)imidazo[1,2-a]pyrazin-3-yl)pyrimidin-4-yl)piperidin-3-yl)methyl)methanesulfonamide] |  |  | > 5000 | 100 to 1000 | 
26 | CC1C(c2cn[nH]c2)NCCN1c1cc(-c2cnc3ccc(C(F)(F)F)nn23)ncn1 (stereo not drawn) [II-706, 3-(6-(2-Methyl-3-(1H-pyrazol-4-yl)piperazin-1-yl)pyrimidin-4-yl)-6-(trifluoromethyl)imidazo[1,2-b]pyridazine] | 500 to 5000 | 10 to 1000 |  |  | 
27 | CN(C)C1CN(c2cc(-c3cnc4ccc(C(F)F)nn34)ncn2)CC(CNS(C)(=O)=O)C1(F)F (stereo not drawn) [II-259, N-((1-(6-(6-(Difluoromethyl)imidazo[1,2-b]pyridazin-3-yl)pyrimidin-4-yl)-5-(dimethylamino)-4,4-difluoropiperidin-3-yl)methyl)methanesulfonamide] | < 500 | < 10 |  |  | 
28 | C[C@H]1C[C@H](c2c[nH]nc2F)CN(c2ccnc(-c3cnc4cnc(C(F)(F)F)cn34)n2)C1 [IV-764, 3-(4-((3R,5S)-3-(3-fluoro-1H-pyrazol-4-yl)-5-methylpiperidin-1-yl)pyrimidin-2-yl)-6-(trifluoromethyl)imidazo[1,2-a]pyrazine] |  |  | < 500 |  | IC50 (GCN2 kinase; compounds of Formula IV, 4 nM GCN2 kinase): 10 to 1000 nM
29 | FC(F)c1ccc2ncc(-c3ccnc(N4CC5(CNC5)C4)c3)n2n1 [II-79, 3-(2-(2,6-Diazaspiro[3.3]heptan-2-yl)pyridin-4-yl)-6-(difluoromethyl)imidazo[1,2-b]pyridazine] | > 5000 | 10 to 1000 |  |  | 
30 | FC(F)(F)c1cn2c(-c3nccc(N4CCOC(c5cn[nH]c5)C4)n3)cnc2s1 (stereo not drawn) [Compound V-20, 2-(1H-pyrazol-4-yl)-4-(2-(2-(trifluoromethyl)imidazo[2,1-b]thiazol-5-yl)pyrimidin-4-yl)morpholine] |  |  |  |  | IC50 [1, 4]: < 500 nM; Ki (GCN2 kinase; [5]): < 10 nM
